Structures can show the parent of a compound that is named as a salt. Where two headings read alike, the source gives them in different places. Residues, ends and D or L forms follow the SMILES beside them.
Key:
[1] = RP-HPLC: insulin apparent solubility / percent recovery
Method: Apparent solubility was measured as the percent insulin recovery as compared to the initial formulations/conditions.
Samples were prepared by withdrawing 100 μL from each vial at every time point and centrifuging prior to loading. Samples were stored in an autosampler at 4° C. prior to use, and were considered stable for 3 days after preparation. All samples were tested in duplicate.
For insulin, 20 μL was injected for each HPLC run.
To determine the apparent solubility, the peak area of insulin/insulin analog main peak and desamido peak were integrated and combined together to calculate the percentage relative to the standards. […] The data were processed using Design-Expert® 7.0 (StatEase) and the “historical data” feature. Insulin percent purity was expressed as the percent of main insulin versus all insulin species.

[2] = biological target: T1, rHuPH20 (Homo sapiens, UniProt P38567); test: Determination of hyaluronidase activity of rHuPH20, turbidimetric assay (Example 2, variant not specified); format: biochemical; conditions: for Effect on rHuPH20 enzymatic activity: stabilizer screening in rHuPH20/insulin formulation, semi-quantitative in comparison with NaCl, samples incubated at 30° C. for about one week
T1 construct: made in house; host or cells: CHO cells (DG44 CHO, HZ24 plasmid, clone 2B2)
T1 sequence (P38567 36-482): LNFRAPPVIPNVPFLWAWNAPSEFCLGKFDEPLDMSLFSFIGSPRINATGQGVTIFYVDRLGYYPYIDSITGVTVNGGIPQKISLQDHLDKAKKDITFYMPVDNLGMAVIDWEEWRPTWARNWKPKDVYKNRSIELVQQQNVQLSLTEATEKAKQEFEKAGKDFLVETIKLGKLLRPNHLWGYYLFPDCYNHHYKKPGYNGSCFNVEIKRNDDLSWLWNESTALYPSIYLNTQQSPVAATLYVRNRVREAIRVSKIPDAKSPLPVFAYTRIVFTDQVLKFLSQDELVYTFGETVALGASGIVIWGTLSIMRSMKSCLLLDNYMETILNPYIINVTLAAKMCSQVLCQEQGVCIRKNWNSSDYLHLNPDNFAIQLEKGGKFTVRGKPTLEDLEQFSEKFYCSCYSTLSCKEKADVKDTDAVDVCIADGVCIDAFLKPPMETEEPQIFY

[3] = Non-denaturing SEC: percent main peak / aggregates of insulin and rHuPH20; format: physicochemical
Method: Reference samples were stored in HPLC vials at 10° C. prior to use.
Samples were stored in HPLC vials at 10° C. prior to use, for up to 3 days.
0.5× Phosphate Buffered Saline (PBS) solution was prepared by diluting 10×PBS with HPLC grade water.
Insulin percent purity was expressed as percentage of the insulin main peak versus the total insulin peaks. The target specification is less than 2% high molecular weight protein, i.e., insulin aggregates.
SEC was performed using the following conditions: 1× Phosphate Buffered Saline (PBS), a Toso BioScience G2000 SWXL column, and a flow rate set at 1 mL/min. Data were collected as described above and means were reported and entered into the design table following the sample sequence provided by the DOE software.

[4] = stabilizer screening in rHuPH20/insulin formulation, semi-quantitative in comparison with NaCl, RP-HPLC, samples stored at 5° C.
[5] = 48 hours, 4° C., preservative levels of Table 22, in U/mL
[6] = 35° C., Table 22 concentrations
[7] = 48 hours, 35° C., preservative levels of Table 22, in U/mL
[8] = t = 0, 100 μg/mL rHuPH20, pH 7.3, 140 mM NaCl, 0.01% polysorbate 80, preservative levels of Table 21, in U/mL

Compound: OCC(O)CO [glycerol]
- Effect on insulin solubility [1]: No/slight effect;
- Effect on rHuPH20 enzymatic activity [2]: No effect

Compound: O=C([O-])c1ccccc1.[Na+] [Sodium Benzoate]
- Effect on rHuPH20 enzymatic activity [2]: No effect

Compound: OC[C@H]1O[C@@](CO)(O[C@H]2O[C@H](CO)[C@@H](O)[C@H](O)[C@H]2O)[C@@H](O)[C@@H]1O [Sucrose]
- Effect on rHuPH20 enzymatic activity [2]: No effect

Compound: NCCCC[C@H](N)C(=O)O [Lysine]
- Effect on insulin solubility [1, 4]: No effect
- Effect on rHuPH20 enzymatic activity [2]: No effect

Compound: Cc1cccc(O)c1 [m-cresol]
- rHuPH20 activity [2, 5]: 10,950
- rHuPH20 activity ([2]; 48 hours, 35° C., preservative levels of Table 22): <LOQ
- Enzymatic Activity of rHuPH20 ([2]; preservative 0.05%, 1 Month, 25° C., insulin/rHuPH20 formulation pH 7.1, 140 mM NaCl): 2103 U/mL
- Enzymatic Activity of rHuPH20 ([2]; preservative 0.05%, 1 Week, 35° C.): 2019 U/mL
- Enzymatic Activity of rHuPH20 ([2]; preservative 0.05%, 2 Weeks, 35° C.): 1955 U/mL
- Enzymatic Activity of rHuPH20 ([2]; preservative 0.1%, 1 Month, 25° C.): 2188 U/mL
- Enzymatic Activity of rHuPH20 ([2]; preservative 0.1%, 1 Week, 35° C.): 2147 U/mL
- Enzymatic Activity of rHuPH20 ([2]; preservative 0.1%, 2 Weeks, 35° C.): 2069 U/mL
- Enzymatic Activity of rHuPH20 ([2]; preservative 0.2%, 1 Month, 25° C.): 2013 U/mL
- Enzymatic Activity of rHuPH20 ([2]; preservative 0.2%, 1 Week, 35° C.): 466 U/mL
- Enzymatic Activity of rHuPH20 ([2]; preservative 0.2%, 2 Weeks, 35° C.): 185 U/mL
- Enzymatic Activity of rHuPH20 ([2]; preservative 0.4%, 1 Month, 25° C.): <LOD
- Enzymatic Activity of rHuPH20 ([2]; preservative 0.4%, 1 Week, 35° C.): <LOD
- Enzymatic Activity of rHuPH20 ([2]; preservative 0.4%, 2 Weeks, 35° C.): <LOD
- % Main rHuPH20 peak by non-denaturing SEC ([3]; 4° C., Table 22 concentrations): 100.00%
- % Main rHuPH20 peak by non-denaturing SEC [3, 6]: 0.834%

Compound: N=C(NCCCCCCNC(=N)NC(=N)Nc1ccc(Cl)cc1)NC(=N)Nc1ccc(Cl)cc1.O=C(O)[C@H](O)[C@@H](O)[C@H](O)[C@H](O)CO.O=C(O)[C@H](O)[C@@H](O)[C@H](O)[C@H](O)CO [Chlorhexidine digluconate]
- rHuPH20 activity ([2]; 24 hours, 25° C., in U/mL): 9520
- rHuPH20 activity [2, 5]: 12,090
- rHuPH20 activity [2, 7]: 13,110
- rHuPH20 activity ([2]; 5 days, 25° C., in U/mL): 12310
- rHuPH20 activity ([2]; 6 days, 35° C., in U/mL): 12270
- rHuPH20 activity [2, 8]: 9,590
- % Main rHuPH20 peak by non-denaturing SEC ([3]; 4° C., 1 day): 98.35%
- % Main rHuPH20 peak by non-denaturing SEC ([3]; 4° C., Table 22 concentrations): 99.77%
- % Main rHuPH20 peak by non-denaturing SEC ([3]; 35° C., 1 day): 98.23%
- % Main rHuPH20 peak by non-denaturing SEC [3, 6]: 98.30%

Compound: NC(=O)CC[C@H](N)C(=O)O [Glutamine]
- Effect on insulin solubility [1, 4]: No effect
- Effect on rHuPH20 enzymatic activity [2]: No effect

Compound: O=C(O)CCCc1ccccc1 [Phenyl butyric acid]
- Effect on rHuPH20 enzymatic activity [2]: No effect

Compound: COC(=O)c1ccc(O)cc1 [methylparaben]
- Enzymatic Activity of rHuPH20 ([2]; preservative 0.3%, 1 Week, 35° C.): 730 U/mL
- % Main rHuPH20 peak by non-denaturing SEC ([3]; 4° C., Table 22 concentrations): 100.00%
- % Main rHuPH20 peak by non-denaturing SEC [3, 6]: 96.91%

Compound: OCCCCCl [4-Chloro-1-butanol]
- rHuPH20 activity ([2]; 24 hours, 25° C., in U/mL): 3500
- rHuPH20 activity ([2]; 5 days, 25° C., in U/mL): 1440
- rHuPH20 activity ([2]; 6 days, 35° C.): <LOQ
- rHuPH20 activity [2, 8]: 11,350
- % Main rHuPH20 peak by non-denaturing SEC ([3]; 4° C., 1 day): 97.89%
- % Main rHuPH20 peak by non-denaturing SEC ([3]; 35° C., 1 day): <LOD

Compound: N[C@@H](Cc1ccccc1)C(=O)O [L-Phenylalanine]
- rHuPH20 activity ([2]; 24 hours, 25° C., in U/mL): 12100
- rHuPH20 activity [2, 5]: 12,540
- rHuPH20 activity [2, 7]: 13,130
- rHuPH20 activity ([2]; 5 days, 25° C., in U/mL): 11460
- rHuPH20 activity ([2]; 6 days, 35° C., in U/mL): 10660
- rHuPH20 activity [2, 8]: 13,420
- % Main rHuPH20 peak by non-denaturing SEC ([3]; 4° C., 1 day): 98.27%
- % Main rHuPH20 peak by non-denaturing SEC ([3]; 4° C., Table 22 concentrations): 100.00%
- % Main rHuPH20 peak by non-denaturing SEC ([3]; 35° C., 1 day): 98.86%
- % Main rHuPH20 peak by non-denaturing SEC [3, 6]: 99.80%

Compound: OC[C@@H](O)[C@@H](O)[C@H](O)[C@H](O)CO [Mannitol]
- Effect on rHuPH20 enzymatic activity [2]: No effect

Compound: [H]/N=C(\N/C(=N/[H])NCCCCCCNC(=N)NC(=N)Nc1ccc(Cl)cc1)Nc1ccc(Cl)cc1 [Chlorhexidine dihydrochloride]
- rHuPH20 activity ([2]; 24 hours, 25° C., in U/mL): 8130
- rHuPH20 activity ([2]; 5 days, 25° C., in U/mL): 8750
- rHuPH20 activity ([2]; 6 days, 35° C., in U/mL): 11890
- rHuPH20 activity [2, 8]: 7,720
- % Main rHuPH20 peak by non-denaturing SEC ([3]; 4° C., 1 day): 98.76%
- % Main rHuPH20 peak by non-denaturing SEC ([3]; 35° C., 1 day): 98.12%

Compound: Benzalkonium Chloride
- rHuPH20 activity ([2]; 24 hours, 25° C., in U/mL): 10750
- rHuPH20 activity ([2]; 5 days, 25° C., in U/mL): 2710
- rHuPH20 activity ([2]; 6 days, 35° C.): <LOQ
- rHuPH20 activity [2, 8]: 11,740
- % Main rHuPH20 peak by non-denaturing SEC ([3]; 4° C., 1 day): 99.64%
- % Main rHuPH20 peak by non-denaturing SEC ([3]; 35° C., 1 day): <LOD

Compound: NCC(=O)NCC(=O)O [Gly-Gly] (H-Gly-Gly-OH)
- Effect on rHuPH20 enzymatic activity [2]: No effect

Compound: O[C@H]1[C@H](O)[C@@H](O)[C@H](O)[C@@H](O)[C@H]1O [Inositol]
- Effect on rHuPH20 enzymatic activity [2]: No effect

Compound: hyaluronic acid [HA]
- % of the original activity retained ([2]; 1 week at 30° C., pH 7.1, 1 mg/mL HA, 75 mM NaCl): 57%
- % of the original rHuPH20 remained ([2]; 1 week at 30° C., pH 7.1, 5.5 mg/mL HA, 100 mM NaCl): 68%
- % of the original activity retained ([2]; 1 week at 30° C., pH 7.1, 10 mg/mL HA): 85%
- rHuPH20 activity ([2]; 1 week at 30° C., pH 7.1, 10 mg/mL HA, from 600 U/mL): 510 U/mL
- rHuPH20 activity ([2]; rHuPH20/insulin co-formulation, 1 week at 30° C., pH 7.1, 1 mg/mL HA, 75 mM NaCl, from 600 U/mL): 341 U/mL
- effect on rHuPH20 stability in comparison with NaCl ([2]; stabilizer screening, 30° C. about one week, […] m-cresol, 0.2% phenol): stabilized rHuPH20 more than NaCl

Compound: OC[C@H]1O[C@H](O[C@H]2O[C@H](CO)[C@@H](O)[C@H](O)[C@H]2O)[C@H](O)[C@@H](O)[C@@H]1O [Trehalose]
- Effect on rHuPH20 enzymatic activity [2]: No effect

Compound: OC[C@@H](O)[C@@H](O)[C@H](O)[C@@H](O)CO [sorbitol]
- Effect on rHuPH20 enzymatic activity [2]: No effect

Compound: C[N+](C)(C)CC(=O)O [Betaine]
- Effect on insulin solubility [1, 4]: No effect
- Effect on rHuPH20 enzymatic activity [2]: No effect

Compound: C[N+](C)(C)[O-] [Trimethylamine oxide (TMAO)]
- Effect on insulin solubility [1, 4]: No effect
- Effect on rHuPH20 enzymatic activity [2]: No effect

Compound: C[CH2][Hg][S]c1ccccc1C(=O)[O-].[Na+] [Thimerosal]
- rHuPH20 activity ([2]; 24 hours, 25° C., in U/mL): 8990
- rHuPH20 activity ([2]; 5 days, 25° C., in U/mL): 8960
- rHuPH20 activity ([2]; 6 days, 35° C., in U/mL): 10070
- rHuPH20 activity [2, 8]: 10,290
- % Main rHuPH20 peak by non-denaturing SEC ([3]; 4° C., 1 day): 98.59%
- % Main rHuPH20 peak by non-denaturing SEC ([3]; 35° C., 1 day): 98.31%
